Experimental data reported in ChEMBL document CHEMBL4825711, “Necrostatins regulate apoptosis, necroptosis, and inflammation in cisplatin-induced nephrotoxicity in LLC-PK1 cells” (2021).
The source made the active and inactive calls. No cut-off for these calls is given here.

How the values were obtained:
[1] = test system: LLC-PK1; assay: Protection against cisplatin-induced nephrotoxicity in pig LLC-PK1 cells assessed as increase in cell viability at 50 to 1000 uM measured after 24 hrs in presence of cisplatin; format: functional, cell-based; details: Sus scrofa, dose 50-1000 µM
[2] = test system: LLC-PK1; assay: Protection against cisplatin-induced nephrotoxicity in pig LLC-PK1 cells assessed as cell viability at 1000 uM measured after 24 hrs in presence of cisplatin; format: functional; details: Sus scrofa, read-out: Activity
[3] = test system: LLC-PK1; assay: Protection against cisplatin-induced nephrotoxicity in pig LLC-PK1 cells assessed as cell viability at 50 uM measured after 24 hrs in presence of cisplatin; format: functional; details: Sus scrofa, read-out: Activity
[4] = test system: LLC-PK1; assay: Protection against cisplatin-induced nephrotoxicity in pig LLC-PK1 cells assessed as increase in cell viability measured after 24 hrs in presence of cisplatin; format: functional, cell-based; details: Sus scrofa, dose 3.125-50 µM
[5] = test system: LLC-PK1; assay: Protection against cisplatin-induced nephrotoxicity in pig LLC-PK1 cells assessed as inhibition of apoptosis by measuring reduction in green stained cells at 50 uM measured after 24 hrs in presence of cisplatin by Tali image based cytometric analysis; format: functional, cell-based; details: Sus scrofa
[6] = test system: LLC-PK1; assay: Protection against cisplatin-induced nephrotoxicity in pig LLC-PK1 cells assessed as inhibition of apoptosis by measuring decrease in cleaved caspase-3 level at 50 uM measured after 24 hrs in presence of cisplatin by western blot analysis; format: functional, cell-based; details: Sus scrofa
[7] = test system: LLC-PK1; assay: Inhibition of cisplatin-induced JNK phosphorylation in pig LLC-PK1 cells at 50 uM measured after 24 hrs in presence of cisplatin by western blot analysis; format: cell-based; details: Sus scrofa
[8] = test system: LLC-PK1; assay: Inhibition of cisplatin-induced ERK phosphorylation in pig LLC-PK1 cells at 50 uM measured after 24 hrs in presence of cisplatin by western blot analysis; format: cell-based; details: Sus scrofa
[9] = test system: LLC-PK1; assay: Inhibition of cisplatin-induced p38 MAPK phosphorylation in pig LLC-PK1 cells at 50 uM measured after 24 hrs in presence of cisplatin by western blot analysis; format: cell-based; details: Sus scrofa
[10] = test system: LLC-PK1; assay: Protection against cisplatin-induced nephrotoxicity in pig LLC-PK1 cells assessed as inhibition of apoptosis by measuring red-stained dead cells at 50 uM measured after 24 hrs in presence of cisplatin by Tali image based cytometric analysis; format: functional, cell-based; details: Sus scrofa

SMILES | Activity [1] | viability at 1000 µM [2] [%] | viability at 50 µM [3] [%] | Activity [4] | Activity [5] | Activity [6] | inhibition [7] | inhibition [8] | inhibition [9] | Activity [10]
CC(=O)N[C@@H](CS)C(=O)O [ACETYLCYSTEINE] | Dose-Dependent Effect | 89.4 | – | – | – | – | – | – | – | –
CN1C(=O)C(Cc2c[nH]c3ccccc23)NC1=S (stereo not drawn) [NECROSTATIN] | – | – | 90.5 | Dose-Dependent Effect | Active | Active | Active | Active | Active | inactive
COc1ccc([C@H]2[C@@H]3CCc4ccc(OC)cc4C3=NN2C(C)=O)cc1 | – | – | 84.5 | – | Active | Active | Active | Active | Active | –
COc1ccc([C@H]2[C@H]3CCc4ccc(OC)cc4C3=NN2C(C)=O)cc1 | – | – | 87.5 | Dose-Dependent Effect | Active | Active | Active | Active | Active | –
